Patent US10729688B2, “Hepatitis B antiviral agents” (Enanta Pharmaceuticals, Inc., priority 2018, dated 2020)

What was measured:
HBV = experiment: HepAD38 antiviral assay: reduction of viral product accumulation; assay type: cell-based; details: Hepatitis B virus, 120 h; HepAD38 cells, tetracycline removed; harvest five days after compound addition; viral product (virion DNA by qPCR, or HBsAg/HBeAg by ELISA) reduced by 50% relative to no drug controls
Procedure: (§1) Methods: HepAD38 cells were maintained as previously reported (Ladner et al, Antimicrob. Agents Chemother. 1997, 4, 1715). Briefly, cells were passaged upon attaining confluency in DMEM/F12 media in the presence of 10% FBS, Penn/Strep, 250 μg/mL G418, and 1 ug/ml tetracycline. Compounds were screened by first washing cells three times with PBS to remove tetracycline, and plating in 96 well plates at 35,000 cells/well. Compounds dissolved in DMSO were then diluted 1:200 into wells containing cells. Five days after compound addition, material was harvested for analysis. For an extended 8 day analysis, cells were plated and treated as described above, but media and compound were refreshed on day 2 and day 5 post initial treatment.
On harvest day, virion DNA was obtained by lysing with Sidestep Lysis and Stabilization Buffer and then quantified via quantitative real time PCR. Commercially available ELISA kits were used to quantitate the viral proteins HBsAg (Alpco) or HbeAg (US Biological) by following the manufacturer's recommended protocol after diluting samples to match the linear range of their respective assays. Irrespective of readout, compound concentrations that reduce viral product accumulation in the cell lysates or supernatants by 50% relative to no drug controls (EC50) are reported; EC50 ranges are as follows: A<0.1 μM; B 0.1-0.2 μM; C>0.2 μM.

[1] = Compound toxicity, ATPLite total ATP levels; assay type: cell-based; details: human, HepAD38 cells; 15,000 cells/well; three days after compound addition; total ATP levels reduced by 50% relative to no drug controls
Procedure: as §1
Compound toxicity was evaluated by seeding cells at 15,000 cells/well and treating with compound as described above.

Row | Compound | EC50 (HBV) [nM] | CC50 at 3 days [1] [nM]
1 | O=C(Nc1cc(F)c(F)c(F)c1)N1Cc2c(-c3ccc(F)cc3)cnn2[C@H]2CCC[C@H]21 [Example 1] | > 200 | –
2 | O=C(Nc1ccc(F)c(F)c1)N1Cc2c(-c3ccc(F)cc3)cnn2[C@H]2CCC[C@H]21 [Example 2] | > 200 | –
3 | O=C(Nc1ccc(F)c(Cl)c1)N1Cc2c(-c3ccc(F)cc3)cnn2[C@H]2CCC[C@H]21 [Example 3] | > 200 | –
4 | O=C(Nc1cc(F)c(F)c(F)c1)N1Cc2c(N3CCCS3(=O)=O)cnn2[C@H]2CCC[C@H]21 [Example 4] | < 100 | –
5 | O=C(Nc1ccc(F)c(F)c1)N1Cc2c(N3CCCS3(=O)=O)cnn2[C@H]2CCC[C@H]21 [Example 5] | 100 to 200 | –
6 | O=C(Nc1ccc(F)c(Cl)c1)N1Cc2c(N3CCCS3(=O)=O)cnn2[C@H]2CCC[C@H]21 [Example 6] | < 100 | –
7 | O=C(Nc1cc(F)c(F)c(F)c1)N1Cc2c(-c3ccc(F)cc3)cnn2[C@@H]2CCC[C@@H]21 [Example 7] | 100 to 200 | –
8 | O=C(Nc1ccc(F)c(F)c1)N1Cc2c(-c3ccc(F)cc3)cnn2[C@@H]2CCC[C@@H]21 [Example 8] | < 100 | –
9 | O=C(Nc1ccc(F)c(Cl)c1)N1Cc2c(-c3ccc(F)cc3)cnn2[C@@H]2CCC[C@@H]21 [Example 9] | > 200 | –
10 | O=C(Nc1cc(F)c(F)c(F)c1)N1Cc2c(N3CCCS3(=O)=O)cnn2[C@@H]2CCC[C@@H]21 [Example 10] | < 100 | > 25000
11 | O=C(Nc1ccc(F)c(F)c1)N1Cc2c(N3CCCS3(=O)=O)cnn2[C@@H]2CCC[C@@H]21 [Example 11] | < 100 | > 25000
12 | O=C(Nc1ccc(F)c(Cl)c1)N1Cc2c(N3CCCS3(=O)=O)cnn2[C@@H]2CCC[C@@H]21 [Example 12] | < 100 | > 25000
13 | O=C(Nc1cc(F)c(F)c(F)c1)N1Cc2c(-c3cscn3)cnn2[C@@H]2CCC[C@@H]21 [Example 13] | < 100 | –
14 | O=C(Nc1ccc(F)c(F)c1)N1Cc2c(-c3cscn3)cnn2[C@@H]2CCC[C@@H]21 [Example 14] | < 100 | –
15 | C[C@@H]1N(c2cnn3c2CN(C(=O)Nc2cc(F)c(F)c(F)c2)[C@H]2CCC[C@H]23)C(=O)OC1(C)C [Example 15] | < 100 | > 25000
16 | O=C(Nc1ccc(F)c(F)c1)N1Cc2c(N3CCCS3(=O)=O)cnn2CC12CC2 [Example 16] | > 200 | –
17 | C[C@@H]1N(c2cnn3c2CN(C(=O)Nc2ccc(F)c(F)c2)[C@H]2CCC[C@H]23)C(=O)OC1(C)C [Example 17] | < 100 | > 25000
18 | C[C@@H]1N(c2cnn3c2CN(C(=O)Nc2ccc(F)c(Cl)c2)[C@H]2CCC[C@H]23)C(=O)OC1(C)C [Example 18] | < 100 | > 25000
19 | CC1(C)CN(c2cnn3c2CN(C(=O)Nc2cc(F)c(F)c(F)c2)[C@H]2CCC[C@H]23)C(=O)O1 [Example 19] | < 100 | > 25000
20 | CC(C)[C@H]1COC(=O)N1c1cnn2c1CN(C(=O)Nc1cc(F)c(F)c(F)c1)[C@H]1CCC[C@H]12 [Example 26] | < 100 | > 25000

Row | Compound | EC50 (HBV) [nM] | CC50 at 3 days [1] [nM]
21 | O=C1OCCN1c1cnn2c1CN(C(=O)Nc1cc(F)c(F)c(F)c1)[C@H]1CCC[C@H]12 [Example 36] | > 200 | –
22 | O=C1CCCN1c1cnn2c1CN(C(=O)Nc1cc(F)c(F)c(F)c1)[C@H]1CCC[C@H]12 [Example 37] | < 100 | –
23 | C[C@H]1COC(=O)N1c1cnn2c1CN(C(=O)Nc1cc(F)c(F)c(F)c1)[C@H]1CCC[C@H]12 [Example 38] | 100 to 200 | –
24 | O=C(Nc1cc(F)c(F)c(F)c1)N1Cc2c(N3C(=O)O[C@@H]4CCC[C@@H]43)cnn2[C@@H]2CCC[C@@H]21 [Example 39] | < 100 | –
25 | O=C1OC(c2ccccc2)CN1c1cnn2c1CN(C(=O)Nc1cc(F)c(F)c(F)c1)[C@H]1CCC[C@H]12 (some centres unmarked) [Example 40] | < 100 | –
26 | COC(=O)Nc1cnn2c1CN(C(=O)Nc1cc(F)c(F)c(F)c1)[C@H]1CCC[C@H]12 [Example 41] | > 200 | –
27 | CCS(=O)(=O)Nc1cnn2c1CN(C(=O)Nc1cc(F)c(F)c(F)c1)[C@H]1CCC[C@H]12 [Example 43] | > 200 | –
28 | C[C@@H]1CN(c2cnn3c2CN(C(=O)Nc2cc(F)c(F)c(F)c2)[C@H]2CCC[C@H]23)C(=O)O1 [Example 44] | < 100 | –
29 | O=C1OC(c2ccccn2)CN1c1cnn2c1CN(C(=O)Nc1cc(F)c(F)c(F)c1)[C@H]1CCC[C@H]12 (some centres unmarked) [Example 45] | < 100 | –
30 | O=C1OC(C2CCCC2)CN1c1cnn2c1CN(C(=O)Nc1cc(F)c(F)c(F)c1)[C@H]1CCC[C@H]12 (some centres unmarked) [Example 46] | > 200 | –
31 | CCC(=O)Oc1cnn2c1CN(C(=O)Nc1cc(F)c(F)c(F)c1)[C@H]1CCC[C@H]12 [Example 47] | > 200 | –
32 | O=C(Nc1cc(F)c(F)c(F)c1)N1Cc2c(N3C(=O)C[C@@H]4CCC[C@@H]43)cnn2[C@@H]2CCC[C@@H]21 [Example 48] | < 100 | –
33 | O=C(Nc1cc(F)c(F)c(F)c1)N1Cc2c(N3C(=O)C[C@H]4CCC[C@H]43)cnn2[C@@H]2CCC[C@@H]21 [Example 49] | 100 to 200 | –
34 | O=C1CC2(CC2)CN1c1cnn2c1CN(C(=O)Nc1cc(F)c(F)c(F)c1)[C@H]1CCC[C@H]12 [Example 50] | < 100 | –
35 | O=C(Nc1cc(F)c(F)c(F)c1)N1Cc2c(N3CCCS3(=O)=O)cnn2[C@@H]2CCCC[C@@H]21 [Example 51] | < 100 | > 25000
36 | O=C(Nc1cc(F)c(F)c(F)c1)N1Cc2c(N3C(=O)OC[C@@H]3c3ccccc3)cnn2[C@@H]2CCC[C@@H]21 [Example 52] | > 200 | –
37 | O=C(Nc1cc(F)c(F)c(F)c1)N1Cc2c(N3C(=O)O[C@@H]4CCCC[C@@H]43)cnn2[C@@H]2CCC[C@@H]21 [Example 53] | < 100 | > 25000
38 | O=C(Nc1cc(F)c(F)c(F)c1)N1Cc2c(N3C(=O)O[C@H]4CCCC[C@@H]43)cnn2[C@@H]2CCC[C@@H]21 [Example 54] | < 100 | –
39 | O=C1OC2(CC2)CN1c1cnn2c1CN(C(=O)Nc1cc(F)c(F)c(F)c1)[C@H]1CCC[C@H]12 [Example 55] | < 100 | –
40 | O=C(Nc1cc(F)c(F)c(F)c1)N1Cc2c(N3C(=O)OC[C@@H]3C3CCCC3)cnn2[C@@H]2CCC[C@@H]21 [Example 56] | 100 to 200 | –

Row | Compound | EC50 (HBV) [nM] | CC50 at 3 days [1] [nM]
41 | O=C1OC2(CCCC2)CN1c1cnn2c1CN(C(=O)Nc1cc(F)c(F)c(F)c1)[C@H]1CCC[C@H]12 [Example 57] | < 100 | –
42 | O=C(Nc1cc(F)c(F)c(F)c1)N1Cc2c(N3C(=O)OC[C@@H]3C3CC3)cnn2[C@@H]2CCC[C@@H]21 [Example 58] | 100 to 200 | –
43 | O=C(Nc1cc(F)c(F)c(F)c1)N1Cc2c(N3C(=O)OC[C@H]3C3CC3)cnn2[C@@H]2CCC[C@@H]21 [Example 59] | < 100 | –
44 | CC1(C)COC(=O)N1c1cnn2c1CN(C(=O)Nc1cc(F)c(F)c(F)c1)[C@H]1CCC[C@H]12 [Example 60] | < 100 | > 25000
45 | O=C(Nc1cc(F)c(F)c(F)c1)N1Cc2c(N3C(=O)OCC34CC4)cnn2[C@@H]2CCC[C@@H]21 [Example 61] | 100 to 200 | –
46 | CCS(=O)(=O)N(C)c1cnn2c1CN(C(=O)Nc1cc(F)c(F)c(F)c1)[C@H]1CCC[C@H]12 [Example 62] | > 200 | –
47 | O=C(Nc1cc(F)c(F)c(F)c1)N1Cc2c(N3CCCS3(=O)=O)cnn2[C@@H]2COC[C@@H]21 [Example 63] | > 200 | –
48 | O=C(Nc1cc(F)c(F)c(F)c1)N1Cc2c(N3C(=O)OC[C@@H]3Cc3ccccc3)cnn2[C@@H]2CCC[C@@H]21 [Example 64] | 100 to 200 | –
49 | CC(C)[C@@H]1N(c2cnn3c2CN(C(=O)Nc2cc(F)c(F)c(F)c2)[C@H]2CCC[C@H]23)C(=O)OC1(C)C [Example 65] | < 100 | –
50 | O=C1OCCCN1c1cnn2c1CN(C(=O)Nc1cc(F)c(F)c(F)c1)[C@H]1CCC[C@H]12 [Example 66] | 100 to 200 | –
51 | CC1(C)CCN(c2cnn3c2CN(C(=O)Nc2cc(F)c(F)c(F)c2)[C@H]2CCC[C@H]23)C(=O)O1 [Example 67] | < 100 | –
52 | CC(C)C[C@H]1COC(=O)N1c1cnn2c1CN(C(=O)Nc1cc(F)c(F)c(F)c1)[C@H]1CCC[C@H]12 [Example 68] | 100 to 200 | –
53 | CC(C)C[C@@H]1N(c2cnn3c2CN(C(=O)Nc2cc(F)c(F)c(F)c2)[C@H]2CCC[C@H]23)C(=O)OC1(C)C [Example 69] | > 200 | –
54 | CC1(C)OC(=O)N(c2cnn3c2CN(C(=O)Nc2cc(F)c(F)c(F)c2)[C@H]2CCC[C@H]23)[C@H]1Cc1ccccc1 [Example 70] | < 100 | –
55 | O=C(Nc1cc(F)c(F)c(F)c1)N1Cc2c(N3CCCS3(=O)=O)cnn2C[C@@H]1c1ccccc1 [Example 71] | < 100 | –
56 | O=C(Nc1cc(F)c(F)c(F)c1)N1Cc2c(N3CCCS3(=O)=O)cnn2C[C@@H]1c1ccccn1 [Example 72] | < 100 | > 25000
57 | O=C(Nc1cc(F)c(F)c(F)c1)N1Cc2c(N3CCCS3(=O)=O)cnn2C[C@@H]1c1ncc[nH]1 [Example 74] | > 200 | –
58 | O=C(Nc1cc(F)c(F)c(F)c1)N1Cc2c(N3CCCS3(=O)=O)cnn2C[C@@H]1c1cnco1 [Example 75] | 100 to 200 | –
59 | O=C(Nc1cc(F)c(F)c(F)c1)N1Cc2c(N3CCCS3(=O)=O)cnn2C[C@@H]1c1ccn[nH]1 [Example 76] | > 200 | –
